{"source": "paper PMC5342726", "about": "“Identification of small molecule inhibitors of ERCC1-XPF that inhibit DNA repair and potentiate cisplatin efficacy in cancer cells” (Oncotarget, 2016)", "key": {"H1299 ERCC1 WT cells": {"tested_on": "H1299 ERCC1 WT cells", "experiment": "Colony survival assay in H1299 ERCC1 WT cells", "type": "cell-based", "protocol": "(§1) We used H460, NSCLC cells, to first assess the impact on colony survival by knocking down ERCC1-XPF in these cells. […] Next, to assess if colony survival is affected we titrated cisplatin in these cells using a fixed concentration of Hit 1(50 μM) or Hit 2 (25 and 50 μM). […] Next, we assessed cisplatin potentiation by treating cells at a fixed cisplatin concentration (cisplatin IC50 in H460 cells) with Hit 1 or 2 titration (Figure 4C, filled symbols). H460 cells were treated with compound for a total of 4 hours while cisplatin was added to the media after 2 hours of compound pre-treatment. […] We also titrated Hit 1 or Hit 2 alone in these cells and treated for 4 h. […] We also assessed the effects of Hit 2 in another NSCLC cell line (H1299), which was either ERCC1 wildtype (WT) or knockout (KO) (Figure 4E).\n(§2) Colony survival assay in a total reaction volume of 2.4 mL in a six-well plate Cells were split and seeded at a density of 300-400 format. […]\n(§3) with ≥50 cells were counted using a light microscope. […]\n(§4) survival was expressed as the ratio of average number of into a linearized pCR4-TOPO vector and transformed colonies in drug treated cells versus control cells x 100. into OneShot TOP10 E. coli using the TOPO-TA Cloning The experiment was done in triplicate for each drug Kit for Sequencing (Thermofisher). […]"}, "APE1 endonuclease": {"tested_on": "APE1 endonuclease", "design": "method as in PMID 18042731", "settings": "cited from earlier work"}, "H460 xenografts": {"tested_on": "H460 xenografts", "settings": "for tumor growth, combination with cisplatin: 16168 20 mg/kg i.p. daily + cisplatin 3 mg/kg i.p. twice a week"}, "H1299 ERCC1 KO cells": {"tested_on": "H1299 ERCC1 KO cells", "experiment": "Colony survival assay in H1299 ERCC1 KO cells", "type": "cell-based", "protocol": "as §1, §2, §3, §4"}}, "note": "Like-named read-outs stand apart in the source and are kept apart here."}
{"smiles": "Cc1ccc(S(=O)(=O)Oc2cc(S(=O)(=O)O)cc3cc(S(=O)(=O)O)cc(N)c23)cc1", "note": "[NSC16168]", "values": [{"measurement": "potentiation of cisplatin response, ERCC1 WT", "setting": "H1299 ERCC1 WT cells", "result": "potentiated the cisplatin response"}, {"measurement": "IC50", "setting": "APE1 endonuclease", "result": "~7", "unit": "µM"}, {"measurement": "tumor growth, combination with cisplatin", "setting": "H460 xenografts", "result": "inhibited H460 tumor growth"}, {"measurement": "tumor growth, combination with cisplatin", "setting": "H460 xenografts; listed as Hit 2", "result": "significant effect on tumor growth compared with cisplatin alone"}, {"measurement": "tumor growth, single agent", "setting": "H460 xenografts; 16168 20 mg/kg i.p. daily or cisplatin 3 mg/kg i.p. twice a week, 10 days", "result": "tumor growth was minimally affected"}, {"measurement": "potentiation of cisplatin response, ERCC1 KO", "setting": "H1299 ERCC1 KO cells", "result": "no additional cisplatin potentiation"}]}
